Active and inactive are the calls of the source. No rule for the calls is given here.
Test system: Broad 7084-01 inhibitor HTS, set 2
Assay: inhibitors in Broad screen 7084-01, set 2 (AID 977613);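 also: host cells are infected with parasite promastigotes that become internalized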

## CC(C)C#Cc1ccc([C@@H]2[C@H](CO)N3C(=O)CN(C(=O)c4ccc5c(c4)OCO5)C[C@@H]23)cc1
  active concentration: > 10 µM (inactive)

## CCS(=O)(=O)N1CC2(C1)[C@@H](c1ccccc1)[C@@H](CO)N2C(=O)c1ccccc1
  active concentration: > 10 µM (inactive)

## C/C=C/c1ccc([C@H]2[C@@H](CO)N(CC3CCCC3)C23CN(C(=O)CC)C3)cc1
  active concentration: > 10 µM (inactive)

## O=C(c1ccccn1)N1C[C@@H]2[C@H](c3ccccc31)[C@H](CO)N2C(=O)Nc1ccccc1F
  active concentration: > 10 µM (inactive)

## CCS(=O)(=O)N1CC2(C1)CN(S(=O)(=O)c1ccccc1)[C@H](CO)c1c2c2ccc(OC)cc2n1C
  active concentration: > 10 µM (inactive)

## CCS(=O)(=O)N1CC2(CN(CC3CCOCC3)[C@@H](CO)c3c2c2ccc(OC)cc2n3C)C1
  active concentration: > 10 µM (inactive)

## O=C(C[C@@H]1CC[C@H]2[C@@H](COC[C@H](O)CN2CCC(F)(F)F)O1)NCC1CC1
  active concentration: > 10 µM (inactive)

## COc1ccccc1CNC(=O)C[C@H]1CC[C@@H]2[C@H](COC[C@@H](O)CN2C(=O)Nc2ccccc2)O1
  active concentration: > 10 µM (inactive)

## N#C[C@@H]1[C@H](c2ccccc2-c2ccc(F)cc2)[C@H](CO)N1C(=O)Cc1cccnc1
  active concentration: > 10 µM (inactive)

## C[C@H](NC(=O)[C@H]1[C@H](CO)[C@H]2Cn3c(ccc(/C=C/c4ccccc4)c3=O)[C@@H]1N2)c1ccccc1
  active concentration: > 10 µM (inactive)

## CCS(=O)(=O)Nc1ccc2c(c1)C(=O)N(C)[C@H]1CC[C@@H](CC(=O)NCCOC)O[C@H]1CO2
  active concentration: > 10 µM (inactive)

## Cc1ccccc1-c1ccc([C@@H]2[C@@H](CO)N3CCCCN(S(=O)(=O)Cc4ccccc4)C[C@H]23)cc1
  active concentration: > 10 µM (inactive)

## COc1ccc2c3c(n(C)c2c1)[C@@H](CO)N(C(=O)C1CC1)CC31CN(Cc2ccccc2OC)C1
  active concentration: > 10 µM (inactive)

## C/C=C/c1ccc([C@H]2[C@H](CO)N(S(=O)(=O)Cc3ccccc3)C23CN(C(=O)C2CCCC2)C3)cc1
  active concentration: > 10 µM (inactive)

## O=C1CN(S(=O)(=O)Cc2ccccc2)C[C@@H]2[C@H](c3ccc(C#Cc4ccccc4)cc3)[C@@H](CO)N12
  active concentration: > 10 µM (inactive)

## COc1cc(CN2CC3(CN(C(=O)CN4CCOCC4)C3)c3c(n(C)c4cc(OC)ccc34)[C@@H]2CO)cc(OC)c1
  active concentration: > 10 µM (inactive)

## O=C(C1CCOCC1)N1CC(=O)N2[C@H](C1)[C@H](c1ccc(-c3cccnc3)cc1)[C@@H]2CO
  active concentration: > 10 µM (inactive)

## C/C=C/c1ccccc1[C@H]1[C@@H](C#N)N(C(=O)NC2CCCCC2)[C@H]1CO
  active concentration: > 10 µM (inactive)

## O=S(=O)(c1cccs1)N1CCCCN2[C@@H](CO)[C@@H](c3ccc(/C=C/c4ccccc4)cc3)[C@@H]2C1
  active concentration: > 10 µM (inactive)

## O=C(C[C@@H]1CC[C@@H]2NC[C@@H](O)COC[C@H]2O1)NCCN1CCCC1
  active concentration: > 10 µM (inactive)

## CC(=O)N1CCCCN2[C@@H](CO)[C@@H](c3ccc(-c4ccccc4)cc3)[C@@H]2C1
  active concentration: > 10 µM (inactive)

## CC(C)C#Cc1ccc([C@H]2[C@H](CO)N3C(=O)CN(C(=O)c4ccc5c(c4)OCO5)C[C@@H]23)cc1
  active concentration: > 10 µM (inactive)

## O=C(C[C@H]1CC[C@@H]2[C@H](COC[C@@H](O)CN2C(=O)c2ccncc2)O1)NCc1ccc(-c2ccccc2)cc1
  active concentration: > 10 µM (inactive)

## CC(C)NC(=O)N1CC2(C1)[C@H](c1ccccc1)[C@@H](CO)N2C(=O)C1CCCC1
  active concentration: > 10 µM (inactive)

## O=C(CC1CC1)N1CC(=O)N2[C@@H](CO)[C@H](c3ccc(C#Cc4cccc(F)c4)cc3)[C@@H]2C1
  active concentration: > 10 µM (inactive)

## CCCC#Cc1ccc([C@@H]2[C@@H](CO)N3CCCCN(CCC)C[C@@H]23)cc1
  active concentration: > 10 µM (inactive)

## CC(=O)N1CC[C@@H]2[C@H](CO)Nc3ccc(C#Cc4cccnc4)cc3[C@@H]21
  active concentration: > 10 µM (inactive)

## COCCNC(=O)[C@H]1[C@H](CO)[C@H]2Cn3c(ccc(-c4cccc(F)c4)c3=O)[C@@H]1N2C(=O)NC(C)C
  active concentration: > 10 µM (inactive)

## COc1ccc2c3c([nH]c2c1)[C@@H](CO)N(S(C)(=O)=O)CC31CN(CC2CCOCC2)C1
  active concentration: > 10 µM (inactive)

## O=C(Nc1ccc(F)cc1)N1CC(=O)N2[C@H](C1)[C@H](c1ccc(C#Cc3cccnc3)cc1)[C@@H]2CO
  active concentration: > 10 µM (inactive)

## OC[C@@H]1[C@@H]2c3ccccc3NC[C@@H]2N1CC1CCOCC1
  active concentration: > 10 µM (inactive)

## O=C(C[C@@H]1CC[C@H]2[C@@H](COC[C@H](O)CN2S(=O)(=O)c2cccc(F)c2)O1)Nc1ccc(-c2ccccc2)cc1
  active concentration: > 10 µM (inactive)

## C[C@@H](O)C#Cc1ccc([C@@H]2[C@@H](CO)N3CCCCN(C(=O)c4ccc5c(c4)OCO5)C[C@H]23)cc1
  active concentration: > 10 µM (inactive)

## CCCNC(=O)N1[C@H](CO)[C@@H]2c3ccccc3N(C(=O)C3CCC3)C[C@@H]21
  active concentration: > 10 µM (inactive)

## CN1c2ccc(C#Cc3cccnc3)cc2[C@H]2[C@H](CCN2C(=O)C2CCCCC2)[C@H]1CO
  active concentration: > 10 µM (inactive)

## CCS(=O)(=O)N1CCC2(CC1)CN[C@@H](CO)c1[nH]c3cc(OC)ccc3c12
  active concentration: > 10 µM (inactive)

## C/C=C/c1ccc([C@@H]2[C@H](CO)N(CC3CC3)C23CN(C(=O)c2ccc4c(c2)OCO4)C3)cc1
  active concentration: > 10 µM (inactive)

## COC(=O)C[C@H]1CC[C@@H]2[C@H](COc3ccc(NC(=O)c4cccc(Cl)c4)cc3C(=O)N2C)O1
  active concentration: > 10 µM (inactive)

## CN(C)C(=O)[C@@H]1[C@@H](CO)[C@@H]2Cn3c(cccc3=O)[C@@H]2N1C(=O)C1CCC1
  active concentration: > 10 µM (inactive)

## O=C(NC1Cc2ccccc2C1)[C@H]1[C@H](CO)[C@H]2Cn3c(cccc3=O)[C@H]2N1C(=O)c1cnccn1
  active concentration: > 10 µM (inactive)

## O=C(C1CCOCC1)N1C[C@H]2[C@@H](c3ccccc31)[C@@H](CO)N2C(=O)Cc1ccccc1
  active concentration: > 10 µM (inactive)

## COc1ccc(CN2[C@@H]3CN(C(=O)Nc4ccc(F)cc4)c4ccccc4[C@@H]3[C@@H]2CO)cc1
  active concentration: > 10 µM (inactive)

## COc1cccc(C(=O)Nc2ccc3c(c2)C(=O)N(C)[C@@H]2CC[C@H](CC(=O)NCCCN4CCOCC4)O[C@H]2CO3)c1
  active concentration: > 10 µM (inactive)

## CCCN1[C@H](C(=O)Nc2nccs2)[C@@H](CO)[C@@H]2Cn3c(ccc(-c4ccccc4OC)c3=O)[C@@H]21
  active concentration: > 10 µM (inactive)

## CCC(=O)N1CC2(C1)CN(C(=O)c1cnccn1)[C@H](CO)c1c2c2ccc(OC)cc2n1C
  active concentration: > 10 µM (inactive)

## CN(C)CC(=O)N1[C@@H](CO)[C@@H](c2ccccc2)C12CN(CCC(F)(F)F)C2
  active concentration: > 10 µM (inactive)

## O=C(Nc1cccc(Cl)c1)N1C[C@@H]2[C@H](c3ccccc31)[C@@H](CO)N2CC1CCOCC1
  active concentration: > 10 µM (inactive)

## CC(=O)N1[C@H](C(=O)NCc2ccccc2Cl)[C@@H](CO)[C@@H]2Cn3c(ccc(-c4cncnc4)c3=O)[C@@H]21
  active concentration: > 10 µM (inactive)

## OC[C@@H]1[C@@H](c2ccccc2)C2(CN(Cc3nccs3)C2)N1CC1CCOCC1
  active concentration: > 10 µM (inactive)

## COc1ccc(NC(=O)N2CC[C@@H]3[C@H]2c2cc(Br)ccc2N(C)[C@H]3CO)cc1
  active concentration: > 10 µM (inactive)

## CCC(=O)N1C[C@H]2[C@@H](c3ccccc31)[C@H](CO)N2C(=O)CC
  active concentration: > 10 µM (inactive)

## COc1cccc(C(=O)Nc2ccc3c(c2)C(=O)N(C)[C@H]2CC[C@@H](CC(=O)NCCCN4CCOCC4)O[C@H]2CO3)c1
  active concentration: > 10 µM (inactive)

## CCS(=O)(=O)Nc1ccc2c(c1)C(=O)N(C)[C@H]1CC[C@H](CC(=O)N[C@@H]3CCN(Cc4ccccc4)C3)O[C@@H]1CO2
  active concentration: > 10 µM (inactive)

## CN(C)C(=O)C[C@@H]1CC[C@@H]2[C@H](COC[C@H](O)CN2C(=O)C2CC2)O1
  active concentration: > 10 µM (inactive)

## O=C(C[C@H]1CC[C@H]2[C@@H](COC[C@@H](O)CN2C(=O)c2ccccc2F)O1)NCc1ccccc1
  active concentration: > 10 µM (inactive)

## O=C(c1cccnc1)N1C[C@H]2[C@@H](c3ccccc31)[C@H](CO)N2Cc1ccc2c(c1)OCO2
  active concentration: > 10 µM (inactive)

## Cc1ccccc1S(=O)(=O)N1CCCCN2[C@H](C1)[C@@H](c1ccc(C#CCN(C)C)cc1)[C@@H]2CO
  active concentration: > 10 µM (inactive)

## CCS(=O)(=O)N1[C@H](CO)[C@@H](c2ccccc2)C12CN(C(=O)C1CCCCC1)C2
  active concentration: > 10 µM (inactive)

## N#Cc1cccc(-c2ccc3c(c2)[C@@H]2[C@@H](CCN2S(=O)(=O)c2ccc(F)cc2)[C@H](CO)N3)c1
  active concentration: > 10 µM (inactive)

## COC(=O)[C@@H]1[C@@H](CO)[C@@H]2Cn3c(ccc(C4=CCCC4)c3=O)[C@@H]2N1C(=O)Cc1cccnc1
  active concentration: > 10 µM (inactive)

## COC(=O)C[C@H]1CC[C@@H]2[C@H](COc3ccc(NS(=O)(=O)c4ccccc4Cl)cc3C(=O)N2C)O1
  active concentration: > 10 µM (inactive)

## O=C1CNC[C@H]2[C@@H](c3ccc(C4=CCCC4)cc3)[C@H](CO)N12
  active concentration: > 10 µM (inactive)

## COc1ccccc1-c1ccccc1[C@@H]1[C@H](C#N)N(C(=O)C2CCOCC2)[C@H]1CO
  active concentration: > 10 µM (inactive)

## O=C(O)[C@H]1[C@H](CO)[C@H]2Cn3c(ccc(-c4cncnc4)c3=O)[C@H]2N1C(=O)C1CCCCC1
  active concentration: > 10 µM (inactive)

## O=C(O)[C@H]1[C@H](CO)[C@H]2Cn3c(ccc(C4=CCCCC4)c3=O)[C@@H]1N2C(=O)Cc1ccccn1
  active concentration: > 10 µM (inactive)

## COc1ccc(-c2ccccc2[C@H]2[C@@H](C#N)N(C(=O)C3CCCCC3)[C@H]2CO)cc1
  active concentration: > 10 µM (inactive)

## O=C(C[C@@H]1CC[C@@H]2[C@H](COC[C@H](O)CN2C(=O)c2ccc(F)cc2)O1)NCc1cccc(F)c1
  active concentration: > 10 µM (inactive)

## OC[C@@H]1[C@H](c2ccccc2)C2(CN(Cc3nccs3)C2)N1Cc1cccnc1
  active concentration: > 10 µM (inactive)

## O=C(C[C@H]1CC[C@@H]2[C@H](COC[C@@H](O)CN2C(=O)Nc2ccc(Cl)cc2)O1)NCC1CC1
  active concentration: > 10 µM (inactive)

## O=C(Nc1ccc(F)cc1)N1CC(=O)N2[C@H](CO)[C@@H](c3ccc(C#Cc4cccnc4)cc3)[C@H]2C1
  active concentration: > 10 µM (inactive)

Reference: PubChem BioAssay AID977613 (Broad Institute, 2014)
